Data on 3 molecules can be found in patent US20090318565A1, “Novel Compositions for the Enhancement of the Anti-oxidant Potential of Hydrogenated Curcuminoids or Combinations Thereof” (priority 2008, published 2009).

Experiment [1] deals with Swiss 3T3 mouse fibroblast cells. The experiment in a line: ROS scavenging assay (DCFH-DA dye, oxidation initiated by FeSO4). Type of experiment: cell-based. The note with it: for IC50: Mus musculus, Swiss-3T3, DCFH-DA, FeSO4, 1 hr at 37° C., fluorescence 485/520 nm, called SC50, read-out: % Inhibition (IC50 μg/ml) ROS scavenging in Swiss 3T3 fibroblast cell line. The procedure:
The DPPH free radical scavenging activity is studied based on the stable free radical 1,1-diphenyl-2-picryl hydrazyl radical (DPPH) which, in presence of an antioxidant in organic/aqueous organic media is bleached and the decrease of absorbance of DPPH is measured spectrophotometrically at 516 nm. The assay mixture containing DPPH methanolic solution & methanolic solutions of various concentrations of the antioxidant is incubated at 37 degree C. for 30 minutes. The reduction in absorbance is measured spectrophotometrically at 516 nm. The free radical scavenging activity is expressed as SC50, the concentration of the sample required for 50% of the free radical to be scavenged. The ROS scavenging assay is based on a cell permeable, non-fluorescent dye, de-esterified DCFH-DA (dichloro fluorescein diacetate) being converted to dichlorofluorescein upon oxidation by the reactive oxygen species. […] Swiss 3T3 mouse fibroblast cells are cultured in DMEM medium with 10% FBS. 1×10^5 cells per well are plated into a 96 well black plate. After treatment with varying concentrations of the samples, the cells are exposed to DCFH-DA dye and oxidation initiated by FeSO4. […] The fluorescence intensity is directly proportional to the ROS scavenging activity of the samples. The activity is expressed as SC50 which is the concentration required for 50% scavenging of ROS.

Experiment [2] in a line: DPPH free radical scavenging assay. To be noted: methanolic solution, 37 degree C. for 30 minutes, absorbance at 516 nm; called SC50. Type of experiment: biochemical. On the procedure: The DPPH free radical scavenging activity is studied based on the stable free radical 1,1-diphenyl-2-picryl hydrazyl radical (DPPH) which, in presence of an antioxidant in organic/aqueous organic media is bleached and the decrease of absorbance of DPPH is measured spectrophotometrically at 516 nm. The assay mixture containing DPPH methanolic solution & methanolic solutions of various concentrations of the antioxidant is incubated at 37 degree C. for 30 minutes. The reduction in absorbance is measured spectrophotometrically at 516 nm. The free radical scavenging activity is expressed as SC50, the concentration of the sample required for 50% of the free radical to be scavenged. The ROS scavenging assay is based on a cell permeable, non-fluorescent dye, de-esterified DCFH-DA (dichloro fluorescein diacetate) being converted to dichlorofluorescein upon oxidation by the reactive oxygen species. The scavenging activity of sample is indicated by the decrease in fluorescence (wavelength 485/520 nm). Swiss 3T3 mouse fibroblast cells are cultured in DMEM medium with 10% FBS. […] After incubation for 1 hr at 37° C., the fluorescence reading is taken at wavelength 485/520 nm (Fluostar optima microplate reader). The fluorescence intensity is directly proportional to the ROS scavenging activity of the samples. The activity is expressed as SC50 which is the concentration required for 50% scavenging of ROS.
On the technique in general: The DPPH test is a chemical assay of radical scavenging.

In brackets after ≈: the same amount, converted by molar mass.

Take `COc1cc(CCC(=O)CC(=O)CCc2ccc(O)cc2)ccc1O` [STR#V, 1-(4-hydroxy-3-methoxyphenyl)-7-(4-hydroxyphenyl)-3,5-heptanedione]: the IC50 in experiment [1] worked out at 4.5 µg/mL (≈ 13.1 µM). In addition, the “enhancement of anti-oxidant properties upon hydrogenation (ROS scavenging activity)” value in experiment [1] (hydrogenated derivative against demethoxycurcumin) was “about 10 fold”. In experiment [2], this molecule showed an SC50 of 3.0 µg/mL.
With `O=C(CCc1ccc(O)cc1)CC(=O)CCc1ccc(O)cc1` [STR#1, 1,7-Bis(4-hydroxyphenyl)-3,5-heptanedione], the “pro-oxidant properties of hydrogenated derivative against bisdemethoxycurcumin” value in experiment [1] (upon hydrogenation) is “enhanced”.
Take `COc1cc(CCC(=O)CC(=O)CCc2ccc(O)c(OC)c2)ccc1O` [STR#II, 1,7-Bis(4-hydroxy-3-methoxyphenyl)-3,5-heptanedione]: the IC50 in experiment [1] was determined as 1.35 µg/mL (≈ 3.62 µM). Also, the “anti-oxidant activity of hydrogenated derivative against curcumin” value in experiment [1] (upon hydrogenation) is on record as “enhanced”.
